Source: patent publication EP1203770A1 (priority 1992, dated 1994)
Read-outs that look alike come from different tables or passages of the source.

Target: T1, HIV-1 protease (Human immunodeficiency virus type 1 group M subtype B, UniProt P04585)
T1 construct: The protease (or proteinase), consisting of only 99 amino acids, is among the smallest enzymes known
Test: In vitro HIV protease inhibitory assay (HIV Protease FITC Assay)
Format: biochemical
Conditions: for inhibition at 0.123 µM / inhibition at 0.37 µM / inhibition at 1.1 µM / inhibition at 3.3 µM / inhibition at 10 µM / inhibition at 30 µM / inhibition at 100 µM: read-out: HIV-1 Protease % Inhib; for Ki: read-out: HIV-1 FITC Ki; for inhibition at 100 µM: HIV-1 Dose 100.000 uM
How it was run: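 Percent inhibition was read as fluorescence after avidin-bead capture and filtration separated FITC cleavage product from biotinylated substrate. Enzyme and substrate reacted 1 h, RT, dark, at pH 5.5 (0.1 M sodium acetate, 1.0 M NaCl, 0.05% NP-40).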

Row | SMILES | inhibition at 0.123 µM (HIV-1 Dose 0.123 uM) [%] | inhibition at 0.37 µM (HIV-1 Dose 0.370 uM) [%] | inhibition at 1.1 µM (HIV-1 Dose 1.100 uM) [%] | inhibition at 3.3 µM (HIV-1 Dose 3.300 uM) [%] | inhibition at 10 µM (HIV-1 Dose 10.000 uM) [%] | inhibition at 30 µM (HIV-1 Dose 30.000 uM) [%] | inhibition at 0.123 µM [%] | inhibition at 0.37 µM [%] | inhibition at 1.1 µM [%] | inhibition at 3.3 µM [%] | inhibition at 10 µM [%] | inhibition at 30 µM [%] | Ki [nM] | inhibition at 100 µM [%]
1 | C=CC(C1=C(O)CC2(CCCCCC2)OC1=O)c1ccccc1 (centres unmarked) [Example 127, 4-Hydroxy-3-(1-phenylallyl)-1-oxa-spiro[5.6]-dodec-3-en-2-one] | < 10 | 14.4 | 38.4 | 65.6 | 98.9 | 102 | – | – | – | – | – | – | – | –
2 | C=CC(C1=C(O)CC2(CCCC2)OC1=O)c1ccccc1 (centres unmarked) [Example 128, 4-Hydroxy-3-(1-phenylallyl)-1-oxa-spiro[5.4]-dec-3-en-2-one] | < 10 | < 10 | 18.5 | 46.8 | 79.8 | 95.7 | – | – | – | – | – | – | – | –
3 | C=CC(C1=C(O)CC2(CCCCC2Cc2ccccc2)OC1=O)c1ccccc1 (centres unmarked) [Example 129, 7-Benzyl-4-hydroxy-3-(1-phenylallyl)-1-oxa-spire[5.5]undec-3-en-2-one] | – | – | – | – | – | – | < 10 | < 10 | 43.5 | 67.1 | 80.7 | 83.4 | – | –
4 | CCC(C1=C(O)CC2(CCCC2)OC1=O)c1ccccc1 (centres unmarked) [Example 130, 4-Hydroxy-3-(1-phenylpropyl)-1-oxa-spiro[5.4]-dec-3-en-2-one] | < 10 | < 10 | < 10 | < 10 | < 10 | 13.1 | – | – | – | – | – | – | – | –
5 | CCC(CCN1CCOCC1)c1cc(O)c(C(c2ccccc2)C2CC2)c(=O)o1 (centres unmarked) [Example 131, 3-(Cyclopropylphenylmethyl)-6-[1-ethyl-3-(4-morpholinyl)propyl]-4-hydroxy-2H-pyran-2-one] | < 10 | < 10 | < 10 | < 10 | 13.2 | 45.9 | – | – | – | – | – | – | – | –
6 | CCC(CC(=O)OCc1ccccc1)c1cc(O)c(C(c2ccccc2)C2CC2)c(=O)o1 (stereo not drawn) [Example 132, 3-(Cyclopropylphenylmethyl)-β-ethyl-4-hydroxy-2-oxo-, phenylmethyl ester 2H-pyran-6-propanoic acid] | < 10 | < 10 | 29.1 | 70.2 | 87.6 | 110 | – | – | – | – | – | – | – | –
7 | CC(C)C(Cc1ccccc1)c1cc(O)c(C(c2ccccc2)C2CC2)c(=O)o1 (centres unmarked) [Example 133, 3-(Cyclopropylphenylmethyl)4-hydroxy-6-[2-methyl-1-(phenylmethyl)propyl]-2H-pyran-2-one] | 20.6 | 49.6 | 74.3 | 95.9 | 110 | 102 | – | – | – | – | – | – | 40 | –
8 | CC(C)C(CC1CCCOC1)c1cc(O)c(C(c2ccccc2)C2CC2)c(=O)o1 (centres unmarked) [Example 134, 3-(Cyclopropylphenylmethyl)-4-hydroxy-6-[2-methyl-1-[(tetrahydro-2H-pyran-3-yl)methyl]propyl]-2H-pyran-2-one] | 21.1 | 57.5 | 83.1 | 99.7 | 111 | 106 | – | – | – | – | – | – | 24 | –
9 | CCC(CCC(F)(F)F)c1cc(O)c(C(c2ccccc2)C2CC2)c(=O)o1 (centres unmarked) [Example 136, 3-(Cyclopropylphenylmethyl)-6-(1-ethyl-4,4,4-trifluorobutyl)-4-hydroxy-2H-pyran-2-one] | < 10 | 24.5 | 62.4 | 91.3 | 99.1 | 99.7 | – | – | – | – | – | – | 52 | –
10 | CCC(CC1CCCN(S(=O)(=O)c2ccc(C)cc2)C1)c1cc(O)c(C(c2ccccc2)C2CC2)c(=O)o1 (centres unmarked) [Example 137, 3-[2-[3-(Cyclopropylphenylmethyl)-4-hydroxy-2-oxo-2H-pyran-6-yl]butyl]-1-[(4-methylphenyl)sulfonyl]-piperidine] | < 10 | < 10 | 23 | 57.2 | 80.2 | 79.7 | – | – | – | – | – | – | – | –
11 | CCC(CC1CCCN1S(=O)(=O)c1ccc(C)cc1)c1cc(O)c(C(c2ccccc2)C2CC2)c(=O)o1 (centres unmarked) [Example 138, 2-[2-[3-(Cyclopropylphenylmethyl)-4-hydroxy-2-oxo-2H-pyran-6-yl]butyl]-1-[(4-methylphenyl)sulfonyl]-pyrrolidine] | < 10 | < 10 | 24.8 | 63.9 | 83.3 | 81.1 | – | – | – | – | – | – | – | –
12 | O=c1oc(CCC(F)(F)F)cc(O)c1C(c1ccccc1)C1CC1 (centres unmarked) [Example 139, 3-(Cyclopropylphenylmethyl)-4-hydroxy-6-(3,3,3-trifluoropropyl)-2H-pyran-2-one] | < 10 | < 10 | < 10 | 27.9 | 58 | 67.1 | – | – | – | – | – | – | – | –
13 | CCC(CC1CCCCN1S(=O)(=O)c1ccc(C)cc1)c1cc(O)c(C(c2ccccc2)C2CC2)c(=O)o1 (centres unmarked) [Example 140, 2-[2-(3-(Cyclopropylphenylmethyl)-4-hydroxy-2-oxo-2H-pyran-6-yl]butyl]-1-[(4-methylphenyl)sulfonyl]-piperidine] | < 10 | 10.5 | 38.6 | 70.2 | 81.6 | 77.1 | – | – | – | – | – | – | – | –
14 | CCC(CC1CCN(S(=O)(=O)c2ccc(C)cc2)CC1)c1cc(O)c(C(c2ccccc2)C2CC2)c(=O)o1 (centres unmarked) [Example 141, 4-[2-[3-(Cyclopropylphenylmethyl)-4-hydroxy-2-oxo-2H-pyran-6-yl]butyl]-1-[(4-methylphenyl)sulfonyl]-piperidine] | < 10 | < 10 | < 10 | < 10 | 11.2 | 17 | – | – | – | – | – | – | – | –
15 | CCC(CC1CC(=O)N(Cc2ccccc2)C1)c1cc(O)c(C(c2ccccc2)C2CC2)c(=O)o1 (centres unmarked) [Example 142, 4-[2-[3-(Cyclopropylphenylmethyl)-4-hydroxy-2-oxo-2H-pyran-6-yl]butyl]-1-(phenylmethyl)-2-pyrrolidinone] | < 10 | < 10 | 26.9 | 64.3 | 88.7 | 104 | – | – | – | – | – | – | – | –
16 | O=c1oc(CC2CCCC2)cc(O)c1C(c1ccccc1)C1CC1 (centres unmarked) [Example 143, 6-(Cyclopentylmethyl)-3-(cyclopropylphenylmethyl)-4-hydroxy-2H-pyran-2-one] | < 10 | < 10 | 25.1 | 57.9 | 83.1 | 93.8 | – | – | – | – | – | – | – | –
17 | O=c1oc(CC2CCOCC2)cc(O)c1C(c1ccccc1)C1CC1 (centres unmarked) [Example 144, 3-(Cyclopropylphenylmethyl)-4-hydroxy-6-[(tetrahydro-2H-pyran-4-yl)methyl]-2H-pyran-2-one] | < 10 | < 10 | < 10 | < 10 | < 10 | 22.7 | – | – | – | – | – | – | – | –
18 | O=c1oc(CCCF)cc(O)c1C(c1ccccc1)C1CC1 (centres unmarked) [Example 145, 3-(Cyclopropylphenylmethyl)-6-(3-fluoropropyl)-4-hydroxy-2H-pyran-2-one] | < 10 | < 10 | < 10 | 26.6 | 59.7 | 84.4 | – | – | – | – | – | – | – | –
19 | CCC(c1cc(O)c(C(c2ccccc2)C2CC2)c(=O)o1)C(O)c1ccccc1 (stereo not drawn) [Example 146, 3-(α-cyclopropylbenzyl)-4-hydroxy-6-(α-ethyl-β-hydroxyphenethyl)-2H-pyran-2-one] | 36.4 | 73.6 | 82.7 | 87.7 | 91.2 | 95.2 | – | – | – | – | – | – | – | –
20 | Cc1ccc(C(O)Cc2cc(O)c(C(c3ccccc3)C3CC3)c(=O)o2)cc1 (stereo not drawn) [Example 147, 3-(α-cyclopropylbenzyl)-4-hydroxy-6-(β-hydroxy-p-methylphenethyl)-2H-pyran-2-one] | < 10 | < 10 | 28.9 | 52.6 | 78.1 | 89.2 | – | – | – | – | – | – | – | 114
21 | O=c1oc(CC(O)c2ccc(F)cc2)cc(O)c1C(c1ccccc1)C1CC1 (stereo not drawn) [Example 148, 3-(α-cyclopropylbenzyl)-4-hydroxy-6-(β-hydroxy-p-fluorophenethyl)-2H-pyran-2-one] | < 10 | 22.4 | 52 | 80.3 | 91.9 | 89.7 | – | – | – | – | – | – | 161 | 130
22 | O=c1oc(CC(O)c2ccc(Cl)cc2)cc(O)c1C(c1ccccc1)C1CC1 (stereo not drawn) [Example 149, 3-(α-cyclopropylbenzyl)-4-hydroxy-6-(β-hydroxy-p-chlorophenethyl)-2H-pyran-2-one] | < 10 | 19.7 | 46.9 | 73.5 | 98.5 | 103 | – | – | – | – | – | – | 267 | 117
